Calls of active or inactive are those of the source.
What was measured:
Mus musculus [1] = test: Anticonvulsant activity in albino CF1 mouse assessed as protection against maximal electroshock-induced seizures at 100 mg/kg, ip measured after 0.25 hr; assay type: functional, organism-based; set-up: dose 100 mg/kg
Mus musculus [2] = test: Anticonvulsant activity in albino CF1 mouse assessed as protection against maximal electroshock-induced seizures at 100 mg/kg, ip measured after 0.5 hr; assay type: functional, organism-based; set-up: dose 100 mg/kg
Mus musculus [3] = test: Anticonvulsant activity in albino CF1 mouse assessed as protection against maximal electroshock-induced seizures at 100 mg/kg, ip measured after 1 hr; assay type: functional, organism-based; set-up: dose 100 mg/kg
Mus musculus [4] = test: Anticonvulsant activity in albino CF1 mouse assessed as protection against maximal electroshock-induced seizures at 100 mg/kg, ip measured after 4 hrs; assay type: functional, organism-based; set-up: dose 100 mg/kg
Mus musculus [5] = test: Anticonvulsant activity in albino CF1 mouse assessed as protection against subcutaneous metrazol-induced seizures at 100 mg/kg, ip measured after 0.25 hr; assay type: functional, organism-based; set-up: dose 100 mg/kg
Mus musculus [6] = test: Anticonvulsant activity in albino CF1 mouse assessed as protection against subcutaneous metrazol-induced seizures at 100 mg/kg, ip measured after 0.5 hr; assay type: functional, organism-based; set-up: dose 100 mg/kg
Mus musculus [7] = test: Anticonvulsant activity in albino CF1 mouse assessed as protection against subcutaneous metrazol-induced seizures at 100 mg/kg, ip measured after 1 hr; assay type: functional, organism-based; set-up: dose 100 mg/kg
Mus musculus [8] = test: Anticonvulsant activity in albino CF1 mouse assessed as protection against subcutaneous metrazol-induced seizures at 100 mg/kg, ip measured after 4 hrs; assay type: functional, organism-based; set-up: dose 100 mg/kg
Mus musculus [9] = test: Neurotoxicity in albino CF1 mouse at 100 mg/kg, ip measured after 0.25 hr; assay type: toxicity, organism-based; set-up: dose 100 mg/kg, route intraperitoneal; conditions: in vivo
Mus musculus [10] = test: Neurotoxicity in albino CF1 mouse at 100 mg/kg, ip measured after 0.5 hr; assay type: toxicity, organism-based; set-up: dose 100 mg/kg, route intraperitoneal; conditions: in vivo
Mus musculus [11] = test: Neurotoxicity in albino CF1 mouse at 100 mg/kg, ip measured after 1 hr; assay type: toxicity, organism-based; set-up: dose 100 mg/kg, route intraperitoneal; conditions: in vivo
Mus musculus [12] = test: Neurotoxicity in albino CF1 mouse at 100 mg/kg, ip measured after 4 hrs; assay type: toxicity, organism-based; set-up: dose 100 mg/kg, route intraperitoneal; conditions: in vivo
Mus musculus [13] = test: Anticonvulsant activity in albino CF1 mouse assessed as protection against 32 mA current-induced seizures at 100 mg/kg, ip measured after 0.25 hr; assay type: functional, organism-based; set-up: dose 100 mg/kg
Mus musculus [14] = test: Anticonvulsant activity in albino CF1 mouse assessed as protection against 32 mA current-induced seizures at 100 mg/kg, ip measured after 0.5 hr; assay type: functional, organism-based; set-up: dose 100 mg/kg
Mus musculus [15] = test: Anticonvulsant activity in albino CF1 mouse assessed as protection against 32 mA current-induced seizures at 100 mg/kg, ip measured after 1 hr; assay type: functional, organism-based; set-up: dose 100 mg/kg
Mus musculus [16] = test: Anticonvulsant activity in albino CF1 mouse assessed as protection against 32 mA current-induced seizures at 100 mg/kg, ip measured after 2 hrs; assay type: functional, organism-based; set-up: dose 100 mg/kg
Mus musculus [17] = test: Anticonvulsant activity in albino CF1 mouse assessed as protection against 32 mA current-induced seizures at 100 mg/kg, ip measured after 4 hrs; assay type: functional, organism-based; set-up: dose 100 mg/kg
Mus musculus [18] = test: Neurotoxicity in 32 mA current-induced seizure albino CF1 mouse model at 100 mg/kg, ip measured after 0.25 hr; assay type: toxicity, organism-based; set-up: dose 100 mg/kg, route intraperitoneal; conditions: in vivo
Mus musculus [19] = test: Neurotoxicity in 32 mA current-induced seizure albino CF1 mouse model at 100 mg/kg, ip measured after 0.5 hr; assay type: toxicity, organism-based; set-up: dose 100 mg/kg, route intraperitoneal; conditions: in vivo
Mus musculus [20] = test: Neurotoxicity in 32 mA current-induced seizure albino CF1 mouse model at 100 mg/kg, ip measured after 1 hr; assay type: toxicity, organism-based; set-up: dose 100 mg/kg, route intraperitoneal; conditions: in vivo
Mus musculus [21] = test: Neurotoxicity in 32 mA current-induced seizure albino CF1 mouse model at 100 mg/kg, ip measured after 2 hrs; assay type: toxicity, organism-based; set-up: dose 100 mg/kg, route intraperitoneal; conditions: in vivo
Mus musculus [22] = test: Neurotoxicity in 32 mA current-induced seizure albino CF1 mouse model at 100 mg/kg, ip measured after 4 hrs; assay type: toxicity, organism-based; set-up: dose 100 mg/kg, route intraperitoneal; conditions: in vivo
Rattus norvegicus [23] = test: Anticonvulsant activity in Sprague-Dawley rat assessed as protection against maximal electroshock-induced seizures at 30 mg/kg, po measured after 0.25 hr; assay type: functional, organism-based; set-up: dose 30 mg/kg
Rattus norvegicus [24] = test: Anticonvulsant activity in Sprague-Dawley rat assessed as protection against maximal electroshock-induced seizures at 30 mg/kg, po measured after 0.5 hr; assay type: functional, organism-based; set-up: dose 30 mg/kg
Rattus norvegicus [25] = test: Anticonvulsant activity in Sprague-Dawley rat assessed as protection against maximal electroshock-induced seizures at 30 mg/kg, po measured after 1 hr; assay type: functional, organism-based; set-up: dose 30 mg/kg
Rattus norvegicus [26] = test: Anticonvulsant activity in Sprague-Dawley rat assessed as protection against maximal electroshock-induced seizures at 30 mg/kg, po measured after 2 hrs; assay type: functional, organism-based; set-up: dose 30 mg/kg
Rattus norvegicus [27] = test: Anticonvulsant activity in Sprague-Dawley rat assessed as protection against maximal electroshock-induced seizures at 30 mg/kg, po measured after 4 hrs; assay type: functional, organism-based; set-up: dose 30 mg/kg
Rattus norvegicus [28] = test: Neurotoxicity in MES Sprague-Dawley rat model at 30 mg/kg, po measured after 0.25 hr; assay type: toxicity, organism-based; set-up: dose 30 mg/kg, route oral; conditions: in vivo
Rattus norvegicus [29] = test: Neurotoxicity in MES Sprague-Dawley rat model at 30 mg/kg, po measured after 0.5 hr; assay type: toxicity, organism-based; set-up: dose 30 mg/kg, route oral; conditions: in vivo
Rattus norvegicus [30] = test: Neurotoxicity in MES Sprague-Dawley rat model at 30 mg/kg, po measured after 1 hr; assay type: toxicity, organism-based; set-up: dose 30 mg/kg, route oral; conditions: in vivo
Rattus norvegicus [31] = test: Neurotoxicity in MES Sprague-Dawley rat model at 30 mg/kg, po measured after 2 hrs; assay type: toxicity, organism-based; set-up: dose 30 mg/kg, route oral; conditions: in vivo
Rattus norvegicus [32] = test: Neurotoxicity in MES Sprague-Dawley rat model at 30 mg/kg, po measured after 4 hrs; assay type: toxicity, organism-based; set-up: dose 30 mg/kg, route oral; conditions: in vivo
Rattus norvegicus [33] = test: Anticonvulsant activity in Sprague-Dawley rat assessed as protection against maximal electroshock-induced seizures at 30 mg/kg, ip measured after 0.25 hr; assay type: functional, organism-based; set-up: dose 30 mg/kg
Rattus norvegicus [34] = test: Anticonvulsant activity in Sprague-Dawley rat assessed as protection against maximal electroshock-induced seizures at 30 mg/kg, ip measured after 0.5 hr; assay type: functional, organism-based; set-up: dose 30 mg/kg
Rattus norvegicus [35] = test: Anticonvulsant activity in Sprague-Dawley rat assessed as protection against maximal electroshock-induced seizures at 30 mg/kg, ip measured after 1 hr; assay type: functional, organism-based; set-up: dose 30 mg/kg
Rattus norvegicus [36] = test: Anticonvulsant activity in Sprague-Dawley rat assessed as protection against maximal electroshock-induced seizures at 30 mg/kg, ip measured after 2 hrs; assay type: functional, organism-based; set-up: dose 30 mg/kg
Rattus norvegicus [37] = test: Anticonvulsant activity in Sprague-Dawley rat assessed as protection against maximal electroshock-induced seizures at 30 mg/kg, ip measured after 4 hrs; assay type: functional, organism-based; set-up: dose 30 mg/kg
Rattus norvegicus [38] = test: Neurotoxicity in MES Sprague-Dawley rat model at 30 mg/kg, ip measured after 0.25 hr; assay type: toxicity, organism-based; set-up: dose 30 mg/kg, route intraperitoneal; conditions: in vivo
Rattus norvegicus [39] = test: Neurotoxicity in MES Sprague-Dawley rat model at 30 mg/kg, ip measured after 0.5 hr; assay type: toxicity, organism-based; set-up: dose 30 mg/kg, route intraperitoneal; conditions: in vivo
Rattus norvegicus [40] = test: Neurotoxicity in MES Sprague-Dawley rat model at 30 mg/kg, ip measured after 1 hr; assay type: toxicity, organism-based; set-up: dose 30 mg/kg, route intraperitoneal; conditions: in vivo
Rattus norvegicus [41] = test: Neurotoxicity in MES Sprague-Dawley rat model at 30 mg/kg, ip measured after 2 hrs; assay type: toxicity, organism-based; set-up: dose 30 mg/kg, route intraperitoneal; conditions: in vivo
Rattus norvegicus [42] = test: Neurotoxicity in MES Sprague-Dawley rat model at 30 mg/kg, ip measured after 4 hrs; assay type: toxicity, organism-based; set-up: dose 30 mg/kg, route intraperitoneal; conditions: in vivo
Mus musculus [43] = test: Anticonvulsant activity in ip dosed albino CF1 mouse assessed as protection against maximal electroshock-induced seizures; assay type: functional
Mus musculus [44] = test: Anticonvulsant activity in ip dosed albino CF1 mouse assessed as protection against subcutaneous metrazol-induced seizures; assay type: functional
[45] = Neurotoxicity in ip dosed albino CF1 mouse; assay type: toxicity, organism-based; conditions: in vivo
Mus musculus [46] = test: Anticonvulsant activity in ip dosed albino CF1 mouse assessed as protection against maximal electroshock-induced seizures measured as time to peak effect; assay type: functional
Rattus norvegicus [47] = test: Anticonvulsant activity in ip dosed hippocampal kindled albino Sprague-Dawley rat seizure model; assay type: functional; conditions: Hippocampus
Rattus norvegicus [48] = test: Anticonvulsant activity in ip dosed hippocampal kindled albino Sprague-Dawley rat seizure model assessed as time of rest; assay type: functional, Hippocampus
Mus musculus [49] = test: Anticonvulsant activity in ip dosed albino CF1 mouse assessed as protection against 6 Hz current-induced seizures; assay type: functional
Mus musculus [50] = test: Neurotoxicity in ip dosed 6 Hz current-induced seizure albino CF1 mouse model; assay type: toxicity, organism-based; conditions: in vivo
Mus musculus [51] = test: Anticonvulsant activity in ip dosed albino CF1 mouse assessed as protection against 6 Hz current-induced seizures measured as time to peak effect; assay type: functional
Rattus norvegicus [52] = test: Anticonvulsant activity in ip dosed Sprague-Dawley rat assessed as protection against maximal electroshock-induced seizures; assay type: functional
Rattus norvegicus [53] = test: Anticonvulsant activity in ip dosed Sprague-Dawley rat assessed as protection against subcutaneous metrazol-induced seizures; assay type: functional
[54] = Neurotoxicity in ip dosed Sprague-Dawley rat; assay type: toxicity, organism-based; conditions: in vivo
[55] = Protective index, ratio of TD50 for neurotoxicity in ip dosed Sprague-Dawley rat to ED50 for anticonvulsant activity in ip dosed MES Sprague-Dawley rat model; assay type: toxicity, organism-based; conditions: in vivo, read-out: Ratio TD50/ED50
Rattus norvegicus [56] = test: Anticonvulsant activity in ip dosed Sprague-Dawley rat assessed as protection against maximal electroshock-induced seizures measured as time to peak effect; assay type: functional

O=C1NC(=O)[C@@H](c2cccc(C(F)(F)F)c2)N2CCCC[C@H]12
inactive: Activity (Mus musculus [1]) | Activity (Mus musculus [2]) | Activity (Mus musculus [4]) | Activity (Mus musculus [5]) | Activity (Mus musculus [6]) | Activity (Mus musculus [7]) | Activity (Mus musculus [8]) | Activity (Mus musculus [16]) | Activity (Mus musculus [17]) | Activity (Rattus norvegicus [23]) | Activity (Rattus norvegicus [24]) | Activity (Rattus norvegicus [25]) | Activity (Rattus norvegicus [26]) | Activity (Rattus norvegicus [27]) | Activity (Rattus norvegicus [33]) | Activity (Rattus norvegicus [34]) | Activity (Rattus norvegicus [35]) | Activity (Rattus norvegicus [36]) | Activity (Rattus norvegicus [37])
active: Activity (Mus musculus [3]) | Activity (Mus musculus [13]) | Activity (Mus musculus [14]) | Activity (Mus musculus [15])
Non-toxic: Activity (Mus musculus [9]) | Activity (Mus musculus [10]) | Activity (Mus musculus [11]) | Activity (Mus musculus [12]) | Activity (Mus musculus [18]) | Activity (Mus musculus [19]) | Activity (Mus musculus [20]) | Activity (Mus musculus [21]) | Activity (Mus musculus [22]) | Activity (Rattus norvegicus [28]) | Activity (Rattus norvegicus [29]) | Activity (Rattus norvegicus [30]) | Activity (Rattus norvegicus [31]) | Activity (Rattus norvegicus [32]) | Activity (Rattus norvegicus [38]) | Activity (Rattus norvegicus [39]) | Activity (Rattus norvegicus [40]) | Activity (Rattus norvegicus [41]) | Activity (Rattus norvegicus [42])

COC[C@@H](NC(C)=O)C(=O)NCc1ccccc1 [LACOSAMIDE]
107 µmol/kg: TD50 [45]
18 µmol/kg: ED50 (Mus musculus [43])
> 100 µmol/kg: ED50 (Mus musculus [44])
0.5 h: Time (Mus musculus [46])
56 µmol/kg: ED50 (Rattus norvegicus [47])
0.25 h: Time (Rattus norvegicus [48])

CCC1(C)CC(=O)NC1=O (stereo not given) [ETHOSUXIMIDE]
2420 µmol/kg: TD50 [45]
0.25 h: Time (Mus musculus [46]) | Time (Mus musculus [51])
964 µmol/kg: ED50 (Mus musculus [44])
166 µmol/kg: ED50 (Mus musculus [50])
> 3550 µmol/kg: ED50 (Mus musculus [43])
1180 µmol/kg: ED50 (Mus musculus [49])

O=C1NC(=O)C(c2ccccc2)(c2ccccc2)N1 [PHENYTOIN]
> 430 µmol/kg: ED50 (Rattus norvegicus [53])
66 µmol/kg: TD50 [54]
10 µmol/kg: ED50 (Rattus norvegicus [52])
6.4: selectivity ratio [55]
0.25 h: Time (Rattus norvegicus [56])

— ChEMBL document CHEMBL3352057, “Novel fluorinated pyrrolo[1,2-a]pyrazine-2,6-dione derivatives: synthesis and anticonvulsant evaluation in animal models of epilepsy” (Bioorg Med Chem, 2014)
